These results are taken from paper PMC11198769, “Enhancement of transcription efficiency by TAR-Tat system increases the functional expression of human olfactory receptors” (PLOS ONE, 2024).

For one test, the target named is T1, OR1A1 (Homo sapiens, UniProt Q9P1Q5).
T1 construct: Lucy tag (N); FLAG (N); Rho tag (N); expressed in transfected cells; host or cells: Flp-In T-REx-293 cells stably expressing RTP1S, Gαolf and Ric8-b
T1 sequence (Q9P1Q5 1-309): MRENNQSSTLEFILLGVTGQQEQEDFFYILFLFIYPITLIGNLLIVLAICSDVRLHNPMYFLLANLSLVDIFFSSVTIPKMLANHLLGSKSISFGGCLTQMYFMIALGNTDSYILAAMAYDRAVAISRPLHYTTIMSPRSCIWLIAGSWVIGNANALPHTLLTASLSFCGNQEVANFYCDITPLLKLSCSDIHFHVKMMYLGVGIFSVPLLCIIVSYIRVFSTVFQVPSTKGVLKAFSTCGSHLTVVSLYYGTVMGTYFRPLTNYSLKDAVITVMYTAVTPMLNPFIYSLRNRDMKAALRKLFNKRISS
In words: hOR assay (GloSensor cAMP luciferase), dose-response. It is filed as cell-based. Particulars: for EC50: read-out: EC50 value; for top value of OR1A1 dose-response curve: luminescence normalized to a maximum value of 100. The procedure:
(§1) Flp-In T-REx-293 cells stably expressing accessory proteins (RTP1S, Gαolf, and Ric8-b) were established using the Flp-In T-REx system. Accessory proteins-expressing cells were maintained in high-glucose Dulbecco’s modified Eagle medium (Sigma-Aldrich) containing 10% fetal bovine serum (Biowest) and 1% antibiotic–antimycotic (Nacalai tesque) at 37°C with 5% CO2.
(§2) The GloSensor™ Technology (Promega) was used for the luciferase assay of the hOR response. As the negative control, cells that were transfected by the pBApo-CMV neo vector and pHEK293 Ultra Expression Vector I were used as mock cells. hOR/pHEK and hOR/pBApo (50 ng/well) were transfected into the accessory proteins-expressing cell line (40000 cells/well) using Lipofectamine 2000 (Thermo Fisher Scientific) (400 nL/well) along with pGlosensor™-22F cAMP biosensor plasmid (Promega) (50 ng/well) in a 96-well plate. At 28 h posttransfection, the cells were washed with an assay buffer (140 mM NaCl, 10 mM HEPES, 5 mM KCl, 1 mM CaCl2・2H2O, 10 mM D-glucose, pH 7.5) and replaced with the assay buffer (50 μL/well) containing 2% GloSensor cAMP substrate and preincubated for 1 h at 25°C. Then, the assay buffer was added (130 μL/well). After 10 min of equilibration, the luminescence was measured (L0). Odorants diluted in 10% DMSO/assay buffer were treated (20 μL/well). After 9 min, the luminescence was measured (L9min). First, all the L9min values were subtracted by the L0 value (ΔL) and divided by the L0 value (ΔL/L0). The concentration range of the odorants was different for each odorant, but the minimum was 0.01 μM and the maximum was 3 mM. For all hORs, luciferase assays with hOR/pBApo and hOR/pHEK were conducted in the same 96-well plate each time, and luminescence was normalized to a maximum value of 100. Dose–response curve images were graphed using the Graph Pad Prism 9 software (Graph Pad Software).

In a further test the target is T2, OR2M3 (Homo sapiens, UniProt Q8NG83).
T2 construct: Lucy tag (N); expressed in transfected cells; host or cells: Flp-In T-REx-293 cells stably expressing RTP1S, Gαolf and Ric8-b
T2 sequence (Q8NG83 1-312): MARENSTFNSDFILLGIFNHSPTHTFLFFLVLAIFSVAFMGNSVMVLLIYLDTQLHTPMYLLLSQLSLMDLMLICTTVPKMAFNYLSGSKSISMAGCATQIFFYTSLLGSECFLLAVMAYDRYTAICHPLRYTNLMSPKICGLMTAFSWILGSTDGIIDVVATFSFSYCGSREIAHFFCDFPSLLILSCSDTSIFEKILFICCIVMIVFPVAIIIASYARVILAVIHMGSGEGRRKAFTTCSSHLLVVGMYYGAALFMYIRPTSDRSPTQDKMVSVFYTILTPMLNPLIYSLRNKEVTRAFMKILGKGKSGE
The test is described as above. It is filed as cell-based. Particulars: OR2M3/pHEK plasmid. The procedure:
as §1, §2

Structures are written as SMILES. Where two headings read alike, the source gives them in different places.

For `C=C(C)[C@H]1CC=C(C)C(=O)C1` [(+)-carvone], the “response of HiBiT-tagged OR1A1” value on OR1A1 (OR1A1 with the HiBiT tag (S1 Fig)) was “a dose-dependent response was detected”. In addition, the results for the 50% effective concentration (EC50) on OR1A1 (OR1A1 with the TAR-Tat system (OR1A1/pHEK)) and at OR1A1 (OR1A1 without the TAR-Tat system (OR1A1/pBApo)) were 905 nM and 4400 nM, respectively. In addition, the “top value of OR1A1 dose-response curve” value at OR1A1 (with the TAR-Tat system (OR1A1/pHEK)) is 90.4; on OR1A1 (without the TAR-Tat system (OR1A1/pBApo)), 53.9.

Compound `CCC(S)C(C)CO` (stereo not drawn) [3-mercapto-2-methyl-1-pentanol] had an EC50 on OR2M3 of 159 nM.
